Measurements: patent publication US7915287B2, “Substituted heterocycles and methods of use” (Amgen Inc., priority 2006, dated 2011)

biological target: T1, c-Met (Homo sapiens, UniProt P08581); test: c-Met receptor assay (HTRF kinase assay with GST-cMet (P), gastrin and ATP); assay type: biochemical; settings: illustrative activity values
T1 construct: A PCR product covering residues 1058-1365 of c-Met (c-Met kinase domain) is generated; made in house; host or cells: baculovirus-infected (insect) cells
Method: Phosphorylation of the purified GST-cMET is performed by incubating the protein for 3 h at RT with the following:
After incubation, the solution is concentrated in a Vivaspin 20 ml Concentrator to a volume less than 2.00 ml. The solution is applied to the same Superdex 75 16/60 column used above after re-equilibration. The GST-cMET is eluted as described above. The elution fractions corresponding to the first eluted peak on the chromatogram are run on a 12% Tris Glycine gel, as above, to identify the fractions with GST-cMET. Fractions are pooled and the OD280 is read with the column buffer used as the blank.
A Kinase reaction Buffer is prepared as follows:
When the assay is carried out, freshly add:
The HTRF buffer contains:
1. Dilute GST-cMet (P) enzyme in kinase buffer as follows:
2. Assay plate preparation:
Then incubate the plate at RT for 30 min.
3. Prepare Gastrin and ATP working solution in kinase reaction buffer as follows:
Use Biomek FX to add 20 μl ATP and Gastrin working solution to the assay plate to start reaction, incubate the plate at RT for 1 h.
KM ATP, KM gastrin for various enzymes were determined by HTRF/^33P labeling and HTRF methods.
Cloning, Expression and Purification of c-Met Kinase Domain
Alternative Purification of Human GST-cMET from Baculovirus Cells
The resin is washed with 10 column volumes (100 mL) of Lysis Buffer. […] The elution is collected as 15 mL fractions. Aliquots of the elution fractions are run on SDS PAGE (12% Tris Glycine gel, Invitrogen, #EC6005BOX). The gel is stained with 0.25% Coomassie Blue stain. Fractions with GST-cMET are concentrated with a Vivaspin 20 mL Concentrator (#VS2002; 10.00 MW cutoff) to a final volume less than 2.0 ml. […] The GST-cMET is eluted with an isocratic run of the above buffer, with the eluent collected in 1.0 mL fractions. Fractions with significant OD280 readings are run on another 12% Tris Glycine gel. The peak tubes with GST-cMET are pooled and the OD280 is read with the column buffer listed above as the blank buffer. […]

T1 sequence (P08581 1058-1365): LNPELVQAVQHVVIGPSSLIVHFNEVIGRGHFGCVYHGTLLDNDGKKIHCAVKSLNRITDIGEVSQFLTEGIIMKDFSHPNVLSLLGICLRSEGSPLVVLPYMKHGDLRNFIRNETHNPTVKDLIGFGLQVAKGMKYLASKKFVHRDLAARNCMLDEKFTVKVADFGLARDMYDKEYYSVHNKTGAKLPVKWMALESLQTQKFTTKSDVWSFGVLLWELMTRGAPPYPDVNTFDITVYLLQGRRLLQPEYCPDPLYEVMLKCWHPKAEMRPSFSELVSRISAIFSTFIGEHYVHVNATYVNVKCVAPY

SMILES | Ki
Cc1cnc(Nc2ccc(Oc3ccnc(NC(=O)N4CCOCC4)c3)c(F)c2)c(C(=O)Nc2ccccc2)c1 [Example 1, N-(4-(2-fluoro-4-(5-methyl-3-(phenylcarbamoyl)pyridin-2-ylamino)phenoxy)pyridin-2-yl)morpholine-4-carboxamide] | 1.7 nM
COc1ccc2c(Oc3ccc(Nc4ncc(-c5ccsc5)cc4C(=O)Nc4ccccc4)cc3F)ccnc2c1 [Example 4, 2-(3-fluoro-4-(7-methoxyquinolin-4-yloxy)phenylamino)-N-phenyl-5-(thiophen-3-yl)nicotinamide] | 4.7 nM
O=C(Nc1ccccc1)c1cccnc1Nc1ccc(Oc2ccnc(NC(=O)N3CCCC3)c2)c(F)c1 [Example 5, 2-(3-fluoro-4-(2-(pyrrolidine-1-carboxamido)pyridin-4-yloxy)phenylamino)-N-phenylnicotinamide] | 0.6 nM
COc1ccccc1NC(=O)c1cccnc1Nc1ccc(Oc2ccnc3cc(OCc4ccccc4)c(OC)cc23)c(F)c1 [Example 10, 2-(4-(7-(benzyloxy)-6-methoxyquinolin-4-yloxy)-3-fluorophenylamino)-N-(2-methoxyphenyl)nicotinamide] | 40.5 nM
COc1cc2c(Oc3ccc(Nc4ncccc4C(=O)NCc4ccccc4)cc3)ccnc2cc1OCCCN1CCOCC1 [Example 15, N-benzyl-2-(4-(6-methoxy-7-(3-morpholinopropoxy)quinolin-4-yloxy)phenylamino)nicotinamide] | 4.8 nM
COc1cc2nccc(Oc3ccc(Nc4ncccc4C(=O)NC(C)c4nccs4)cc3)c2cc1OC (stereo not drawn) [Example 24, 2-(4-(6,7-dimethoxyquinoline-4-yloxy)phenylamino)-N-(1-(thiazol-2-yl)ethyl)nicotinamide] | 136 nM
CNC(=O)c1cccnc1Nc1ccc(Oc2ccnc3cc(OC)c(OC)cc23)cc1 [Example 26, 2-(4-(6,7-dimethoxyquinoline-4-yloxy)phenylamino)-N-methylnicotinamide] | 498 nM
COc1cc2nccc(Oc3ccc(Nc4ncccc4C(=O)NCc4nccs4)cc3)c2cc1OC [Example 27, 2-(4-(6,7-dimethoxyquinoline-4-yloxy)phenylamino)-N-(thiazol-2-ylmethyl)nicotinamide] | 180 nM
COc1cc2nccc(Oc3ccc(Nc4ncccc4C(=O)NCc4ncc[nH]4)cc3)c2cc1OC [Example 28, N-((1H-imidazol-2-yl)methyl)-2-(4-(6,7-dimethoxyquinoline-4-yloxy)phenylamino)nicotinamide] | 576 nM
COc1cc2nccc(Oc3ccc(Nc4ncccc4C(=O)Nc4ncco4)cc3)c2cc1OC [Example 29, 2-(4-(6,7-dimethoxyquinoline-4-yloxy)phenylamino)-N-(oxazol-2-yl)nicotinamide] | 196 nM
CSc1ncc(C(=O)Nc2ccccc2)c(Nc2ccc(Oc3ccnc(NC(=O)N4CCCC4)c3)c(F)c2)n1 [Example 30, 4-(3-fluoro-4-(2-(pyrrolidine-1-carboxamido)pyridin-4-yloxy)phenylamino)-2-(methylthio)-N-phenylpyrimidin-5-carboxamide] | 0.2 nM
COc1ccc2c(Oc3ccc(Nc4nccnc4C(=O)Nc4ccccc4)cc3F)ccnc2c1 [Example 36, 3-(3-fluoro-4-(7-methoxyquinolin-4-yloxy)phenylamino)-N-phenylpyrazine-2-carboxamide] | 29.3 nM
